Measurements: ChEMBL document CHEMBL4004877, “Synthesis and biological evaluation of chalcone, dihydrochalcone, and 1,3-diarylpropane analogs as anti-inflammatory agents” (Bioorg Med Chem Lett, 2017)
≈ marks a conversion by molar mass, not a printed value.

What was measured:
[1] = Cytotoxicity against LPS-stimulated mouse RAW264.7 cells assessed as cell viability at 10 ug/ml after 24 hrs by MTT assay relative to control; format: cell-based; settings: LPS-stimulated RAW264.7 cells, read-out: Activity
[2] = Cytotoxicity against LPS-stimulated mouse RAW264.7 cells assessed as cell viability at 5 ug/ml after 24 hrs by MTT assay relative to control; format: cell-based; settings: LPS-stimulated RAW264.7 cells, read-out: Activity
RAW264.7 [3] = test: Antiinflammatory activity in mouse RAW264.7 cells assessed as inhibition of LPS induced iNOS-dependent nitric oxide production at 5 ug/ml after 24 hrs by Griess assay relative to control; format: functional; settings: RAW264.7, 24 h
[4] = Cytotoxicity against LPS-stimulated mouse RAW264.7 cells assessed as cell viability at 1.25 ug/ml after 24 hrs by MTT assay relative to control; format: cell-based; settings: LPS-stimulated RAW264.7 cells, read-out: Activity
RAW264.7 [5] = test: Antiinflammatory activity in mouse RAW264.7 cells assessed as inhibition of LPS induced iNOS-dependent nitric oxide production at 2.5 ug/ml after 24 hrs by Griess assay relative to control; format: functional; settings: RAW264.7, 24 h
[6] = Cytotoxicity against LPS-stimulated mouse RAW264.7 cells assessed as cell viability at 2.5 ug/ml after 24 hrs by MTT assay relative to control; format: cell-based; settings: LPS-stimulated RAW264.7 cells, read-out: Activity
RAW264.7 [7] = test: Antiinflammatory activity in mouse RAW264.7 cells assessed as inhibition of LPS induced iNOS-dependent nitric oxide production after 24 hrs by Griess assay; format: functional, cell-based; settings: RAW264.7, 24 h
RAW264.7 [8] = test: Antiinflammatory activity in mouse RAW264.7 cells assessed as inhibition of LPS induced iNOS-dependent nitric oxide production at 10 ug/ml after 24 hrs by Griess assay relative to control; format: functional; settings: RAW264.7, 24 h
RAW264.7 [9] = test: Antiinflammatory activity in mouse RAW264.7 cells assessed as inhibition of LPS induced iNOS-dependent nitric oxide production at 1.25 ug/ml after 24 hrs by Griess assay relative to control; format: functional; settings: RAW264.7, 24 h

Row | IC50 (RAW264.7 [7]) | Compound | viability at 24 h, 10 ug/ml [1] | viability at 24 h, 5 ug/ml [2] | inhibition at 5 µg/mL (RAW264.7 [3]) | viability at 24 h, 1.25 ug/ml [4] | inhibition at 2.5 µg/mL (RAW264.7 [5]) | viability at 24 h, 2.5 ug/ml [6] | inhibition at 10 µg/mL (RAW264.7 [8]) | inhibition at 1.25 µg/mL (RAW264.7 [9])
1 | > 10 µg/mL | COc1ccc(OC)c(CCC(=O)c2cccc(O)c2)c1 | 93.6% | 97.5% | 22.3% | 98.6% | 18.4% | 96.8% | 38.5% | 15.7%
2 | > 10 µg/mL | COc1cc(C(=O)/C=C/c2cccc(OC)c2OC)ccc1O | 63.7% | 67.8% | 3.2% | 97.5% | 3.1% | 94% | 46.2% | 3.9%
3 | 4.03 µg/mL (≈ 12.1 µM) | COc1ccc(CCCc2ccc(OC)c(OC)c2OC)c(O)c1 | 36.7% | 84.5% | 56.8% | 96.3% | 34.9% | 95.5% | 68.1% | 33.3%
4 | 8.09 µg/mL (≈ 29.7 µM) | COc1cccc(CCCc2cccc(O)c2)c1OC | 69.6% | 96.1% | 18.3% | 97.1% | 18.4% | 97.4% | 63.9% | 16.3%
5 | 5.08 µg/mL (≈ 18.7 µM) | COc1ccc(CCCc2ccc(O)c(OC)c2)cc1 | 66.3% | 96.4% | 49% | 99.2% | 42.9% | 97.8% | 89.8% | 35.9%
6 | 4.83 µg/mL (≈ 17 µM) | COc1cccc(/C=C/C(=O)c2cccc(O)c2)c1OC | 32.8% | 57.8% | 52.4% | 99.6% | 3% | 70.8% | 55.1% | 1.8%
7 | 8.79 µg/mL (≈ 29.1 µM) | COc1ccc(CCCc2cccc(OC)c2OC)c(O)c1 | 63% | 95.2% | 30.7% | 99.1% | 30.3% | 99% | 54.4% | 21.5%
8 | > 10 µg/mL | COc1ccc(C(=O)/C=C/c2ccc(OC)c(OC)c2OC)c(O)c1 | 75.3% | 72.5% | 4.1% | 98.5% | 9.7% | 96.6% | 0.1% | 9.1%
9 | 7.72 µg/mL (≈ 31.9 µM) | COc1ccc(CCCc2cccc(O)c2)cc1 | 76.2% | 94.1% | 40.1% | 99.9% | 20.5% | 99.2% | 55.9% | 22.2%
10 | 9.9 µg/mL (≈ 32.7 µM) | COc1ccc(CCCc2cc(OC)ccc2OC)c(O)c1 | 42.5% | 98.5% | 36.4% | 102% | 31.7% | 102% | 50.2% | 6.2%
